In patent publication EP0364581A1, “METHOD OF STERILIZING PLANT POLLEN” (VSESOJUZNY NAUCHNO-ISSLEDOVATELSKY INST. SELSKOKHOZYAISTV. …, priority 1988, dated 1989):

How the values were obtained:
Experiment in all cases: field test of gametocidal activity (sterilisation of anthers)
[1] = tested on: tetraploidem Roggen Sorte Ukrainskaya; assay type: in vivo; conditions: V. Periode, wäßrige Emulsion (concentration not given), 6 kg/ha; for Prozentsatz des Ansetzens der Körner bei freier Bestäubung: control = 100
Description: (§1) Die gametozide Aktivität der erfindungsgemäßen Sterilisationsmittel war in Feldversuch in verschiedenen bodenklimatischen Zonen mit Teilstücken von 10 m^2 Größe in drei-- bis viermaliger Wiederholung nachgewiesen. Jedes Sterilisationsmittel wurde mindestens 5 Jahre lang geprüft.
(§2) Die Entwicklung der Perioden der Organogenese wird zytologisch überwacht. Die Behandlung von Pflanzen mit dem Sterilisationsmittel erfolgt am Anfang der fünften Periode der Organogenese nach Kupermann.
(§3) Mit dem Ahrenschieben verwirklicht man die Isolierung von Hauptähren und anderen Stockwerken in Pergamentbeuteln. Bei Weizen und Tritikale werden Einzelisolatoren verwendet. Bei Roggen schließt man je 1 Ähre von 5 bis 7 verschiedenen nebeneinander befindlichen Pflanzen in einen gemeinsamen Isolator ein. Bei Hirse wird jede Rispe getrennt isoliert. Der Sterilitätsprozentsatz (X) für Weizen, Roggen, Tritikale und Hirse wird nach der Formel [formula]
(§4) Samen von unbehandelten Kontrollpflanzen ermittelt.
(§5) Die Kornzahl in nicht isolierten Ähren von Kontrollpflanzen wird bedingt für 100% Ansetzen bei freier Bestäubung angenommen.
(§6) Um zuverlässige Angaben zu erhalten, verwendet man 20 bis 25 Isolatoren jeder Wiederholung für Weizen und Tritikale, 10 bis 15 Isolatoren jeder Wiederholung für Roggen und Hirse.
Pflanzen von tetraploidem Roggen Sorte Ukrainskaya werden in der V. Periode der Organogenese (nach Kupermann) mit einer wäßrigen Emulsion von Ammoniumsalz der 2-Methyl-3--zyklohexenkarbonsäure, Phthalsäurediäthylester, Kaliumsalz der Benzoesäure, Phthalsäurediisobutylester behandelt. Die Emulsion enthält 0,01 Masse% Dimethylformamid und 0,1 Masse% C12-C14-Kalziumalkylbenzolsulfonat. Der Verbrauch an Präparat beträgt 6 kg/ha. Als Kontrolle dienen Pflanzen, behandelt mit einem Verdünner ohne Sterilisationsmittel. Die Prüfergebnisse sind in der Tabelle 11 angeführt. […] Periode der Organogenese erhalten.

[2] = tested on: Winterweizens Sorte Priboi; assay type: in vivo, Winterweizen; conditions: V. und VI. Periode, 2%ige wäßrige Emulsion, 12 kg/ha; for Prozentsatz des Ansetzens der Körner bei freier Bestäubung: control = 100
Description: as §1, §2, §3, §4, §5, §6
Pflanzen des Winterweizens Sorte Priboi werden in der V. und VI. Periode der Organogenese (nach Kupermann) mit einer 2%igen wäßrigen Emulsion von Kaliumsalz der 2-Methyl--3-zyklohexenkarbonsäure, 2-Methyl-3-zyklohexenkarbonsäure- methylester, Pnthalsäuredipropylester, Phthalsäurediisobutylester behandelt. Die Emulsion enthält 0,01 Masse% Dimethylsulfoxid und 0,1 Masse% C12-C14 -Kalziumalkylbenzolsulfonat. Der Verbrauch an Präparat beträgt 12 kg/ha. Als Kontrolle dienen Pflanzen, behandelt mit einem Verdünner ohne Sterilisationsmittel.

[3] = tested on: Sommerweizens Sorte Botanicheskaya 4; assay type: in vivo, Sommerweizen; conditions: V. Periode, 1%ige wäßrige Emulsion, 8 kg/ha; for Prozentsatz des Ansetzens der Körner bei freier Bestäubung: control = 100
Description: as §1, §2, §3, §4, §5, §6
Pflanzen des Sommerweizens Sorte Botanicheskaya 4 werden in der V. Periode der Organogenese (nach kupermann) mit einer l%igen wäßrigen Emulsion von Phthalsäuredibutylester, Phthalsauredipropylester, Natriumsalz der 2-Methyl-3-zyklo- hexenkarbonsäure, 2-Methyl-3-zyklohexenkarbonsäuremethyl- ester behandelt. Die Emulsion enthalt 0,01 Masse% Tetrahydrofuran und 0,1 Masse% C12-C14-Kalziumalkylbenzolsulfonat. Der Verbrauch an Präparat beträgt 8 kg/ha. Als Kontrolle dienen Pflanzen, behandelt mit einem Verdünner ohne Sterilisationsmittel

[4] = tested on: Winterweizens Sorte Kharkovskaya 81; assay type: in vivo, Winterweizen; conditions: V. und VI. Periode, 2%ige wäßrige Emulsion, 12 kg/ha; for Prozentsatz des Ansetzens der Körner bei freier Bestäubung: control = 100
Description: as §1, §2, §3, §4, §5, §6
Pflanzen des Winterweizens Sorte Kharkovskaya 81 werden in der V. und VI. Periode der Organogenese (nach Kupermann) mit einer 2%igen wäßrigen Emulsion von Natriumsalz der 2-Methyl-3-zyklohexenkarbonsäure, Phthalsäuredihexylester, Ammoniumsalz der 2-Methyl-3-zyklohexenkarbon- säure, Phthalsäuredibutylester, Phthalsäurediallylester behandelt. Die Emulsion enthält 0,01 Masse% Dodezylsulfat und 0,1 Masse% C12-C14 -Kalziumalkylbenzolsulfonat. Der Verbrauch an Präparat beträgt 12 kg/ha.
Die Prüfergebnisse sind in der Tabelle 4 angeführt. Als Kontrolle dienten Pflanzen, behandelt ähnlich wie in Beispiel 1.

[5] = tested on: Tritikale der Sorte PRAG-109; assay type: in vivo; conditions: V. Periode, 1%ige wäßrige Emulsion, 10 kg/ha
Description: as §1, §2, §3, §4, §5, §6
Pflanzen Tritikale der Sorte PRAG-109 werden in der V. Periode der Organogenese (nach Kupermann) mit einer 1%igen wäßrigen Emulsion von Phthalsäuredibutylester, Phthalsäurediäthylester, Phthalsäuredihexylester, Phthalsäurediisobutylester, Kaliumsalz der 2-Methyl-3-zyklohexenkarbon- säure, 2-Methyl-3-zyklohexenkarbonsäuremethylester behandelt. Die Emulsion enthält 0,01 Masse% Dimethylsulfoxid und 0,1 Masse% C12C14- Kalziumalkylbenzolsulfonat. Der Verbrauch an Präparat beträgt 10 kg/ha. Als Kontrolle dienen Pflanzen, behandelt mit einem Verdünner ohne Sterilisationsmittel. […]
In allen Fällen dienen als Kontrolle Pflanzen, behandelt mit einem Verdünner ohne Sterilisationsmittel. Die Prüfergebnisse sind in der Tabelle 20 angeführt. […] Periode der Organogenese erhalten.

[6] = tested on: Tritikale Sorte Amfidiploid 206; assay type: in vivo; conditions: V. Periode, 1%ige wäßrige Emulsion, 6 kg/ha; for Prozentsatz des Ansetzens bei freier Bestäubung: control = 100
Description: as §1, §2, §3, §4, §5, §6
Pflanzen Tritikale Sorte Amfidiploid 206 werden in der V.Periode der Organogenese (nach Kupermann) mit einer l%igen wäßrigen Emulsion von Phthalsäuredipropylester, Phthalsäurediisobutylester, Kaliumsalz der 2-Methyl-3-zyklohexenkarbon- säure, 2-Methyl-3-zyklohexenkarbonsäuremethylester, Ammoniumsalz der 2-Methyl-3-zyklohexenkarbonsäure behandelt. Die Emulsion enthält 0,01 Masse% Tetrahydrofuran und 0,1 Masse% C12-C14-Kalziumalkylbenzolsulfonat. Der Verbrauch an Präparat beträgt 6 kg/ha. Als Kontrolle dienen Pflanzen, behandelt mit einem Verdünner ohne Sterilisationsmittel.

## CC(C)COC(=O)c1ccccc1C(=O)OCC(C)C [Beispiel 59, Phthalsäurediisobutylester]
[1]
  Kornzahl der Ähre bei freier Bestäubung: 34,7
  Kornzahl der Ähre im Isolator: 0,0
  Prozentsatz der Sterilität: 100,0%
  Prozentsatz des Ansetzens der Körner bei freier Bestäubung: 94,2%

## CC1C=CCCC1C(=O)O (stereo not drawn) [Beispiel 56, Ammoniumsalz der 2-Methyl-3--zyklohexenkarbonsäure]
[1]
  Kornzahl der Ähre bei freier Bestäubung: 32,1
  Kornzahl der Ähre im Isolator: 0,0
  Prozentsatz der Sterilität: 100,0%
  Prozentsatz des Ansetzens der Körner bei freier Bestäubung: 87,2%

## CCCOC(=O)c1ccccc1C(=O)OCCC [Beispiel 16, Pnthalsäuredipropylester]
[2]
  Kornzahl der Ähre bei freier Bestäubung: 32,6
  Kornzahl der Ähre im Isolator: 5,6
  Prozentsatz der Sterilität: 82,6%
  Prozentsatz des Ansetzens der Körner bei freier Bestäubung: 88,6%

## CC1C=CCCC1C(=O)[O-].[Na+] (stereo not drawn) [Beispiel 32, Natriumsalz der 2-Methyl-3-zyklo-hexenkarbonsäure]
[3]
  Kornzahl der Ähre bei freier Bestäubung: 32,9
  Kornzahl der Ähre im Isolator: 1,0
  Prozentsatz der Sterilität: 97,0%
  Prozentsatz des Ansetzens der Körner bei freier Bestäubung: 88,0%

## COC(=O)C1CCC=CC1C (stereo not drawn) [Beispiel 15, 2-Methyl-3-zyklohexenkarbonsäure-methylester]
[2]
  Kornzahl der Ähre bei freier Bestäubung: 34,8
  Kornzahl der Ähre im Isolator: 0,0
  Prozentsatz der Sterilität: 100,0%
  Prozentsatz des Ansetzens der Körner bei freier Bestäubung: 94,6%

## CC1C=CCCC1C(=O)[O-].[Na+] (stereo not drawn) [Beispiel 18, Natriumsalz der 2-Methyl-3-zyklohexenkarbonsäure]
[4]
  Kornzahl der Ähre bei freier Bestäubung: 32,6
  Kornzahl der Ähre im Isolator: 0,2
  Prozentsatz der Sterilität: 99,4%
  Prozentsatz des Ansetzens der Körner bei freier Bestäubung: 96,2%

## CC(C)COC(=O)c1ccccc1C(=O)OCC(C)C [Beispiel 17, Phthalsäurediisobutylester]
[2]
  Kornzahl der Ähre bei freier Bestäubung: 33,7
  Kornzahl der Ähre im Isolator: 0,0
  Prozentsatz der Sterilität: 100,0%
  Prozentsatz des Ansetzens der Körner bei freier Bestäubung: 91,6%

## COC(=O)C1CCC=CC1C (stereo not drawn) [Beispiel 33, 2-Methyl-3-zyklohexenkarbonsäuremethyl-ester]
[3]
  Kornzahl der Ähre bei freier Bestäubung: 34,2
  Kornzahl der Ähre im Isolator: 0,0
  Prozentsatz der Sterilität: 100,0%
  Prozentsatz des Ansetzens der Körner bei freier Bestäubung: 91,4%

## CCCCOC(=O)c1ccccc1C(=O)OCCCC [Beispiel 30, Phthalsäuredibutylester]
[3]
  Kornzahl der Ähre bei freier Bestäubung: 30,6
  Kornzahl der Ähre im Isolator: 0,2
  Prozentsatz der Sterilität: 99,4%
  Prozentsatz des Ansetzens der Körner bei freier Bestäubung: 81,8%
[5]
  Kornzahl der Ähre bei freier Bestäubung: 66,8
  Kornzahl der Ähre im Isolator: 1,0
  Prozentsatz der Sterilität: 98,4%
[5]; control = 100
  Prozentsatz des Ansetzens der Körner bei freier Bestäubung: 96,8%

## CC(C)COC(=O)c1ccccc1C(=O)OCC(C)C [Beispiel 44, Phthalsäurediisobutylester]
[6]
  Kornzahl der Ähre bei freier Bestäubung: 32,5
  Kornzahl der Ähre im Isolator: 0,0
  Prozentsatz der Sterilität: 100,0%
  Prozentsatz des Ansetzens bei freier Bestäubung: 89,3%

## COC(=O)C1CCC=CC1C (stereo not drawn) [Beispiel 46, 2-Methyl-3-zyklohexenkarbonsäuremethylester]
[6]
  Kornzahl der Ähre bei freier Bestäubung: 32,6
  Kornzahl der Ähre im Isolator: 0,0
  Prozentsatz der Sterilität: 100,0%
  Prozentsatz des Ansetzens bei freier Bestäubung: 89,6%

## CCCCCCOC(=O)c1ccccc1C(=O)OCCCCCC [Beispiel 19, Phthalsäuredihexylester]
[4]
  Kornzahl der Ähre bei freier Bestäubung: 30,8
  Kornzahl der Ähre im Isolator: 0,0
  Prozentsatz der Sterilität: 100,0%
  Prozentsatz des Ansetzens der Körner bei freier Bestäubung: 90,8%

## CCCOC(=O)c1ccccc1C(=O)OCCC [Beispiel 43, Phthalsäuredipropylester]
[6]
  Kornzahl der Ähre bei freier Bestäubung: 31,8
  Kornzahl der Ähre im Isolator: 0,0
  Prozentsatz der Sterilität: 100,0%
  Prozentsatz des Ansetzens bei freier Bestäubung: 87,3%

## O=C(O)c1ccccc1 [Beispiel 58, Kaliumsalz der Benzoesäure]
[1]
  Kornzahl der Ähre bei freier Bestäubung: 35,8
  Kornzahl der Ähre im Isolator: 4,2
  Prozentsatz der Sterilität: 85,0%
  Prozentsatz des Ansetzens der Körner bei freier Bestäubung: 97,3%

## C=CCOC(=O)c1ccccc1C(=O)OCC=C [Beispiel 22, Phthalsäurediallylester]
[4]
  Kornzahl der Ähre bei freier Bestäubung: 30,6
  Kornzahl der Ähre im Isolator: 3,1
  Prozentsatz der Sterilität: 90,3%
  Prozentsatz des Ansetzens der Körner bei freier Bestäubung: 90,3%

## CC1C=CCCC1C(=O)[O-].[K+] (stereo not drawn) [Beispiel 14, Kaliumsalz der 2-Methyl--3-zyklohexenkarbonsäure]
[2]
  Kornzahl der Ähre bei freier Bestäubung: 35,1
  Kornzahl der Ähre im Isolator: 0,0
  Prozentsatz der Sterilität: 100,0%
  Prozentsatz des Ansetzens der Körner bei freier Bestäubung: 95,4%

## CCOC(=O)c1ccccc1C(=O)OCC [Beispiel 57, Phthalsäurediäthylester]
[1]
  Kornzahl der Ähre bei freier Bestäubung: 30,7
  Kornzahl der Ähre im Isolator: 0,0
  Prozentsatz der Sterilität: 100,0%
  Prozentsatz des Ansetzens der Körner bei freier Bestäubung: 83,4%

## CCCOC(=O)c1ccccc1C(=O)OCCC [Beispiel 31, Phthalsauredipropylester]
[3]
  Kornzahl der Ähre bei freier Bestäubung: 31,5
  Kornzahl der Ähre im Isolator: 0,5
  Prozentsatz der Sterilität: 98,5%
  Prozentsatz des Ansetzens der Körner bei freier Bestäubung: 84,2%

## CC1C=CCCC1C(=O)O (stereo not drawn) [Beispiel 47, Ammoniumsalz der 2-Methyl-3-zyklohexenkarbonsäure]
[6]
  Kornzahl der Ähre bei freier Bestäubung: 37,5
  Kornzahl der Ähre im Isolator: 6,8
  Prozentsatz der Sterilität: 79,7%
  Prozentsatz des Ansetzens bei freier Bestäubung: 103,1%

## CC1C=CCCC1C(=O)O (stereo not drawn) [Beispiel 45, Kaliumsalz der 2-Methyl-3-zyklohexenkarbon-säure]
[6]
  Kornzahl der Ähre bei freier Bestäubung: 31,8
  Kornzahl der Ähre im Isolator: 0,1
  Prozentsatz der Sterilität: 99,7%
  Prozentsatz des Ansetzens bei freier Bestäubung: 87,3%
